Values joined by “and” are separate entries in the source; they are usually repeats but may differ in a detail not shown here. Identical values can stand only once. Like-named read-outs stand apart in the source and are kept apart here.
Legend:
[1] = Population PK compartmental analysis (two-compartment model with saturable ligand to receptor binding); type: in vivo, human
Protocol: A population PK analysis was also performed using a nonlinear mixed‐effect modeling approach (NONMEM version 7.4, ICON Development Solutions, Hanover MD, USA). […] The model was expressed in terms of differential equations and first‐order rate constants of absorption (ka), elimination (ke), association with (kon) and dissociation from (koff) receptors, maximal binding capacity (Btot), apparent central volume of distribution (Vc/F), and erythrocytes’ volume of distribution (Very). Note that Very actually encompasses the volume of all types of cells containing receptors, assumed to tally with the sampled erythrocytes. Plasma protein binding was assumed constant over the whole range of observed concentrations. Renal extraction fraction (Qren) was added to characterize urine excretion with an additional compartment for urine data. Values of kon and koff characterized in vitro at different temperatures were used as initial estimates and the value of kon to 2018 µM^−1 h^−1 at 37°C fixed in the in vivo model. F was not evaluated, making the model estimate apparent values for Vc/F and CL/F. The first‐order elimination rate constant from the central compartment was calculated as ke = (CL/F)/(Vc/F). The first value below the LLOQ was equaled to LLOQ/2 and subsequent nonquantifiable values were discarded (M6 method).12 Details concerning differential equations and model building steps and adjustment are available in Supplemental material.
Figure 1 Compartmental model accounting for nonlinearity of distribution. Aa, amount of sultiame at the absorption site; Ap, amount of sultiame in plasma and central compartment; Vc, central volume of distribution; Aery, amount of sultiame in the cells, assumed to be bound to receptors; Very, cellular volume of distribution; ka, absorption rate constant; ke, elimination rate constant; kon, constant of association onto receptors binding sites; koff, constant of dissociation from the binding site; Bbound, amount of occupied receptors, assumed equal to Aery; Bfree, amount of free binding sites; Btot, sultiame maximal binding capacity (mg); Qren, renal fraction of the elimination rate; Foral, oral bioavailability, assumed equal to 1
A stepwise procedure was used to identify the model that best fitted the data, comparing two‐, three‐, and four‐compartmental models (peripheral or separate intracellular compartments for free and bound sultiame), and other nonlinear models (Bmax sigmoid model). Exponential errors were used for the description of between‐subject variability (BSV) of PK parameters. Proportional, additive, and mixed error models were compared to describe the residual variability. The stability and internal validity of the final model were assessed by means of standard procedures, detailed in Supplemental material. Covariates were not analyzed due to the limited number of subjects included.
Our population PK analysis used a non-linear mixed effect two-compartment model with first-order absorption incorporating a saturable ligand to receptor binding. We fitted it to our data with the NONMEM software (version 7.4, ICON Development Solutions, Hanover MD, USA), using the ADVAN13 subroutine.
Notice that Aery simultaneously expresses the amount of binding sites occupied by sultiame (Bbound). Thus, the amount of free binding sites corresponds to Bfree = (Btot – Aery), and the model only needs the parameter Btot to characterize the size of the saturable compartment associated to receptor binding (in mg of sultiame). The values of kon and koff characterized in vitro at 37°C were used in the in vivo model as initial estimates, and the kon was fixed to 2018 µM^-1· h^-1.
The model was fitted to the data using first order conditional estimation (FOCE) to obtain values for the eight model parameters listed above. […]

erythrocytes = experiment: In vitro spiking experiment: sultiame exchanges between plasma and erythrocytes; type: in vitro ADME, human
Protocol: A spiking experiment was performed to better characterize sultiame exchanges between plasma and erythrocytes. The influx into cells was investigated through spiking fresh human whole blood on EDTA at different target concentrations (1, 5, 10, 20, 40, and 80 mg/L) and different temperatures (4, 21, and 37°C), followed by sampling at 0, 2, 4, 6, 8, 10, 15, 30, 60, 120, and 180 min. The efflux was investigated through incubating whole blood for 1 h at 2 concentrations (10 and 40 mg/L) at 37°C, centrifugating and briefly washing the erythrocytes with NaCl 0.9%, and letting them equilibrate with fresh plasma while drawing samples at 0, 2, 4, 6, 8, 10, 15, 30, 60, 120, 180 minutes, and 24 hours.
In addition, competition studies were performed with two other antiepileptic agents known for their affinity for CA (zonisamide and topiramate), added at equimolar concentration to 20 mg/L of sultiame. Similar ranges of inhibition constants for CA II were reported in the literature for these three substances.13 Samples (1 mL) were drawn before and at 2, 4, 6, 8, 10, 15, 20, 30, 45, 60, and 120 min after addition of the competitor. Sultiame, zonisamide, and topiramate concentrations were then analyzed. All samples were centrifuged at 18 620 g for 1 minutes at 4°C. Plasma, erythrocyte, and urine fractions were stored separately at − 80°C prior to analysis for a maximum of 9 months. For analysis, plasma and hemolyzed erythrocytes samples were subjected to protein precipitation with MeOH containing the internal‐standard sultiame D4 and quantified with the previously described HPLC‐MS/MS method, using matrix‐matched calibration and quality controls. The sultiame concentrations determined in erythrocytes were corrected for the 10% interstitial plasma remnant in the erythrocyte fraction after centrifugation.14

[2] = Safety and tolerability assessments in healthy volunteers; type: in vivo, human
Protocol: All adverse events were recorded with an evaluation of their severity and imputability to the study drug. Each volunteer received a full medical examination at screening and at the end of the study. Visual analogue scales (VAS) on paper support recorded the intensity of 12 potential symptoms (abdominal pain, appetite, nausea, taste of sparkling water, fatigue, headache, dyspnea, dizziness, paresthesia, difficulty in concentration, irritability, and depression) predrug (0 hour) at 0.5, 1, 2, 4, 6, 8, 10, and 24 hours postdose. Vital signs (supine blood pressure, heart rate, body temperature, and respiratory frequency) were measured predose and at 1, 2, 4, 6, 8, 10, and 24 hours postdose. Laboratory parameters, drug screen, and urinalysis were performed at screening and at study end.

[3] = population estimate of final model
[4] = 37 °C, deduced using Arrhenius' law
[5] = single oral doses 50, 100, 200 mg

Btot ([1]; bootstrap evaluation, median): 111 mg
QRen ([1]; bootstrap evaluation, median): 28.8%
Vc ([1]; bootstrap evaluation, median): 64.8 L
Very ([1]; bootstrap evaluation, median): 3.27 L
ka ([1]; bootstrap evaluation, median): 1.88 h⁻¹
koff ([1]; bootstrap evaluation, median): 2.244 s⁻¹
kon ([1]; bootstrap evaluation, median, fixed): 560600 M⁻¹ s⁻¹
Kd ([1]; final population model, read-out: estimated kD of final model (koff/kon)): 4 µM
Vd ([1]; male, human, erythrocytes, oral, population estimate of final model, read-out: Very, cell (erythrocyte compartment) volume of distribution): 3.3 L
Vd ([1]; male, human, plasma, oral, population estimate of final model, read-out: Vc, central volume of distribution): 64.8 L
clearance ([1]; male, human, plasma, oral, bootstrap evaluation, median of 2000 replicates, read-out: CLplasma (converted)): 166 mL/min
kon, association constant ([1]; not estimated but fixed in the in vivo model to the in vitro value at 37°C): 560600 M⁻¹ s⁻¹
Btot, maximal binding capacity [1, 3]: 111 mg
QRen, fraction eliminated by renal route [1, 3]: 28.8%
Very, cell (erythrocyte compartment) volume of distribution [1, 3]: 3.27 L
ka, constant of absorption [1, 3]: 1.88 h⁻¹
koff, dissociation constant [1, 3]: 2.244 s⁻¹
CLplasma, apparent plasma clearance (CL/F) ([1]; population estimate of final model, oral 50, 100, 200 mg): 10.0 L/h and 9.95 L/h
erythrocyte/plasma ratio (erythrocytes; concentrations of 10 mg/L or less): 800
erythrocyte/plasma ratio (erythrocytes; concentrations of 20 mg/L and above): less than 30
efflux from incubated erythrocytes into blank plasma (erythrocytes; erythrocytes incubated 1 h at 10 and 40 mg/L, 37°C, data not shown): only minute amounts
in vitro binding capacity (erythrocytes; in vitro evaluation): exceeding 20 mg per liter of whole blood
whole blood concentration at which saturation of erythrocytes occurs (erythrocytes; in vitro spiking): ~20 mg/L
time to steady state of erythrocyte/plasma ratio (erythrocytes; spiked fresh human whole blood): about 10 minutes
Compound: NS(=O)(=O)c1ccc(N2CCCCS2(=O)=O)cc1 [Sultiame]
koff (erythrocytes; [4]): 0.0486 s⁻¹
kon (erythrocytes; [4]): 560600 M⁻¹ s⁻¹
transient facial and limb paresthesia ([2]; after intake of the highest dose of 200 mg, four subjects): reported by three subjects
gastrointestinal and central nervous system tolerance using VAS [2, 5]: limited impact
symptom most frequently reported [2, 5]: Fatigue
severe or serious adverse events ([2]; single oral doses 50, 100, 200 mg, four subjects): No severe or serious adverse events were reported
